Test results: the NIST ThermoML archive (doi:10.1021/je400431e)

Test: mn = molality of the nth substance listed, in mol/kg
Settings: 298 K, Ring tensiometer

CCCCCCCCCCCCOS(=O)(=O)[O-].[Na+] [sodium dodecyl sulfate] + O
Settings | surface tension liquid-gas [mN/m]
m1 = 0.00013 | 66.84
m1 = 0.00031 | 60.83
m1 = 0.00102 | 52.39
m1 = 0.00303 | 45.05
m1 = 0.00501 | 40.55
m1 = 0.007 | 38.58
m1 = 0.008 | 37.41
m1 = 0.009 | 37.73
m1 = 0.01 | 37.99
m1 = 0.012 | 37.76

CCCCCCCCCCCC[N+](C)(C)C.[Cl-] [N,N,N-trimethyl-1-dodecanaminium chloride] + O
Settings | surface tension liquid-gas [mN/m]
m1 = 3e-05 | 56.38
m1 = 5e-05 | 51.17
m1 = 7e-05 | 47.18
m1 = 0.0001 | 41.7
m1 = 0.00015 | 35.66
m1 = 0.0002 | 31.91
m1 = 0.0003 | 28.13
m1 = 0.0005 | 25.41
m1 = 0.0007 | 25.28
m1 = 0.001 | 25.68
m1 = 0.0013 | 25.4
m1 = 0.0016 | 25.52
